Data reported in publication PMC8011931, “Identification, Structure–Activity Relationship, and Biological Characterization of 2,3,4,5-Tetrahydro-1H-pyrido[4,3-b]indoles as a Novel Class of CFTR Potentiators” (Journal of Medicinal Chemistry, 2020).

Target: F508del-CFTR (Homo sapiens, UniProt P13569, DEL508-508)
Assay: HS-YFP-based assay for CFTR activity on F508del-CFTR FRT cells rescued at 32 °C for 24 h
Format: cell-based
Design: expressed in transfected cells; key to Emax: fold increase in F508del-CFTR rescue relative to hit 3 (normalized)
Settings: for EC50: F508del-CFTR FRT cells rescued at 32 °C for 24 h, plus forskolin; for EC50 / Emax (FRT F508del-CFTR): mean ± SD (n = 3–6), n.a.: not active (up to 20 μM); for Emax (FRT F508del-CFTR): normalized for the activity of analogue 3; for Emax: supplementary csv, same data as Tables 1–3
Method: The chemical library was screened in duplicate on a Fischer rat thyroid (FRT) cell line, stably coexpressing F508del-CFTR and the halide-sensitive yellow fluorescent protein, HS-YFP.[23],[34],[35] To overcome the F508del trafficking defect, cells were initially incubated for 24 h at 32 °C and then acutely treated (15–30 min) with a single compound (5 μM) in combination with forskolin (10 μM). After stimulation, the F508del-CFTR activity in the plasma membrane was calculated by measuring the rate of fluorescence quenching arising from iodide influx.[34] This activity was compared to that of wells containing forskolin alone (negative control) or forskolin plus VX-770 (1 μM, as a positive control) (Figure 2A). Analysis of screening performance with the Z′ method gave a score of 0.6, which can be considered optimal for this type of assay. The activity scores for each compound were then plotted as an ordered distribution (Figure 2B). All compounds whose average activity calculated from the two rounds of screening was greater than 185% with respect to the negative control (i.e., forskolin alone) were considered as primary hits.
The primary hits were confirmed by testing them at different concentrations, in order to extrapolate the dose–response relationship. First, we focused on the F508del mutant. The compounds were tested in the low micromolar range, in the presence of forskolin (10 μM), on F508del-CFTR FRT cells following rescue of the trafficking defect by low-temperature incubation, as done for the primary screening. The most interesting hits were subsequently tested for their ability to overcome the more severe gating defect of pure class III mutant using FRT cells stably expressing G551D-CFTR (Figure 3B).
The role of the heteroaryl group (A) acylating the position 2 of the tetrahydro-γ-carboline was initially explored by modifying the substituent on the pyrazolyl residue and replacing the pyrazole with other rings, while keeping the 8-methoxy carboline moiety unmodified. The activity of each compound is described in terms of normalized maximal efficacy (Emax), the maximum fold increase in the rescue of F508del-CFTR activity with respect to hit 3, and potency (EC50), the concentration producing half-maximal efficacy.
FRT cells stably expressing mutant F508del-CFTR or G551D-CFTR and the halide-sensitive yellow fluorescent protein (HS-YFP) YFP-H148Q/I152L and CFBE41o-cells stably expressing F508del-CFTR and HS-YFP were generated as previously described.[21],[57] FRT cells were cultured using the Coon’s modification of Ham’s F12 medium, while CFBE41o-cells were cultured in the modified Eagle’s medium. Media were supplemented with 10% fetal calf serum, 2 mM L-glutamine, 100 U/mL of penicillin, and […] of streptomycin. For functional assays of CFTR activity based on the HS-YFP assays, CFBE41o- or FRT cells were plated (50,000 cells/well) on clear-bottom 96-well black microplates (Corning Life Sciences, Acton, MA). The following day, cells were assayed. In the case of FRT cells expressing F508del-CFTR, plates were kept at 32 °C (or treated with correctors at 37 °C where indicated) for an additional 24 h to rescue the mutant trafficking defect, before assays.
Prior assay, cells were washed with phosphate-buffered saline (PBS) containing (in mM) 137 NaCl, 2.7 KCl, 8.1 Na2HPO4, 1.5 KH2PO4, 1 CaCl2, and 0.5 MgCl2. Cells were then incubated for 25 min with 60 μL of PBS plus forskolin (20 μM) and test compounds (at the desired concentration) to stimulate mutant CFTR. Cells were then transferred to microplate readers (FluoStar Optima; BMG Labtech, Offenburg, Germany) for CFTR activity determination. The plate readers were equipped with high-quality excitation (HQ500/20X: 500 ± 10 nm) and emission (HQ535/30M: 535 ± 15 nm) filters for YFP (Chroma Technology). […]

Chain of F508del-CFTR (P13569 with tags, fused parts or gaps DEL508-508): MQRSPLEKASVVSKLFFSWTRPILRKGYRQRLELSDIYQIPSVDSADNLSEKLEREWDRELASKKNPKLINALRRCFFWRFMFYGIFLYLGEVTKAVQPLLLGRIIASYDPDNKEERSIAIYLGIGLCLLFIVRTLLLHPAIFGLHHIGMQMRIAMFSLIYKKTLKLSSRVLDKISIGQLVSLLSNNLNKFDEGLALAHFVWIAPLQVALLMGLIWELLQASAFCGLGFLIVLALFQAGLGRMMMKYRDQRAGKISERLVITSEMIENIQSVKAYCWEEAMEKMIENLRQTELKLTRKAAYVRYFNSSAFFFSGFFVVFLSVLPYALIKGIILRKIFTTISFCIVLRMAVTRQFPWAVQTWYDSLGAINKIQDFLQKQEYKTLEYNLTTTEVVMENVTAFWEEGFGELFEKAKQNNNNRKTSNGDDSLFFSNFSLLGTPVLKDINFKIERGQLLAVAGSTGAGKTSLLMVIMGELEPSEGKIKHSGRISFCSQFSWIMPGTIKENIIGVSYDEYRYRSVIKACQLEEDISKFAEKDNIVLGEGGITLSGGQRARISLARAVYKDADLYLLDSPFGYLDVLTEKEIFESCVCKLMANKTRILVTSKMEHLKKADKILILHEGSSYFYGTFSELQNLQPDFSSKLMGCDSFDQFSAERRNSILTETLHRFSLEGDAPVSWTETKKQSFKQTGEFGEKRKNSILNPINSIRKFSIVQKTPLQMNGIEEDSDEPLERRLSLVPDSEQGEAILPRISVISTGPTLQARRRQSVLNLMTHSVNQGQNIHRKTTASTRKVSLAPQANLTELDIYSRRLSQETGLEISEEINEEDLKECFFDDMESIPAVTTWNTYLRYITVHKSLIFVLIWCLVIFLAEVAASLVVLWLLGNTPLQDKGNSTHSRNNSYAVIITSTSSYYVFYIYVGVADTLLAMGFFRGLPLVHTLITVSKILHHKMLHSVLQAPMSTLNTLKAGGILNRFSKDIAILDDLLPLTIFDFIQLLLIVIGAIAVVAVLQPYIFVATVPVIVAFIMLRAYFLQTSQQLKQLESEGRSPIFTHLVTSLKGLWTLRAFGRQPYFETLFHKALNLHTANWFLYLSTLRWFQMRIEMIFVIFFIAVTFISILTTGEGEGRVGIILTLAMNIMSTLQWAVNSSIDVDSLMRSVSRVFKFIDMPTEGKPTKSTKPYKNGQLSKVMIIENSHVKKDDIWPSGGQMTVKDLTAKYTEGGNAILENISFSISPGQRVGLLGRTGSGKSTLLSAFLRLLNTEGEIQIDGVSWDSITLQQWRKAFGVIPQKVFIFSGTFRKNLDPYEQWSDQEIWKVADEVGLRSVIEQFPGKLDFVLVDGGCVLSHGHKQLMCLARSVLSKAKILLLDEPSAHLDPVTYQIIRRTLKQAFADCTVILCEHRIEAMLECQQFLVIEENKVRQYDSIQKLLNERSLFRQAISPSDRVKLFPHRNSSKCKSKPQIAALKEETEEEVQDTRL

Row | Compound | EC50 | Emax (FRT F508del-CFTR) | Emax | fold decrease (drop) in potency with respect to 30 (EC50, F508del-CFTR FRT cells)
1 | COc1ccc2[nH]c3c(c2c1)CN(C(=O)c1cc(C(C)C)[nH]n1)CC3 [Compound 6, (8-Methoxy-1,3,4,5-tetrahydro-2H-pyrido-(5-isopropyl-1H-pyrazol-3-yl)-[4,3-b]indol-2-yl)methanone] | 5.7 ± 0.7 µM | 0.95 ± 0.08 | 0.95 ± 0.08 | –
2 | Cc1ccc(F)c2[nH]c3c(c12)C(C)N(C(=O)c1cc(C(F)(F)F)[nH]n1)CC3 (single isomer, unassigned) [Compound 41, (R)- or (S)-(6-Fluoro-1,9-dimethyl-1,3,4,5-tetrahydro-2H-pyrido[4,3-b]indol-2-yl)-(5-(trifluoromethyl)-1H-pyrazol-3-yl)methanone] | 0.08 ± 0.02 µM | – | 1.0 ± 0.22 | –
3 | CC(C)c1ccc2[nH]c3c(c2c1)CN(C(=O)c1cc(C(F)(F)F)[nH]n1)CC3 [Compound 18, (8-Isopropyl-1,3,4,5-tetrahydro-2H-pyrido[4,3-b]indol-2-yl)-(5-(trifluoromethyl)-1H-pyrazol-3-yl)methanone] | 1.4 ± 0.9 µM | – | 0.69 ± 0.09 | –
4 | Cc1cc(F)c2[nH]c3c(c2c1)CN(C(=O)c1cc(C(F)(F)F)[nH]n1)CC3 [Compound 26, (6-Fluoro-8-methyl-1,3,4,5-tetrahydro-2H-pyrido[4,3-b]indol-2-yl)-(5-(trifluoromethyl)-1H-pyrazol-3-yl)methanone] | 0.23 ± 0.08 µM | – | 0.70 ± 0.02 | –
5 | Cc1cccc2[nH]c3c(c12)CN(C(=O)c1cc(C(F)(F)F)[nH]n1)CC3 [Compound 15, (9-Methyl-1,3,4,5-tetrahydro-2H-pyrido[4,3-b]indol-2-yl)-(5-(trifluoromethyl)-1H-pyrazol-3-yl)methanone] | 0.48 ± 0.12 µM | – | 0.83 ± 0.09 | –
6 | COc1ccc2[nH]c3c(c2c1)CN(C(=O)c1cc(C(F)(F)F)n(C)n1)CC3 [Compound 11, (8-Methoxy-1,3,4,5-tetrahydro-2H-pyrido[4,3-b]indol-2-yl)-(1-methyl-5-(trifluoromethyl)-1H-pyrazol-3-yl)methanone] | 7.1 ± 1.6 µM | 1.20 ± 0.08 | 1.20 ± 0.08 | –
7 | COc1ccc2[nH]c3c(c2c1)CN(C(=O)c1c[nH]c(C(F)(F)F)n1)CC3 [Compound 8, (8-Methoxy-1,3,4,5-tetrahydro-2H-pyrido[4,3-b]indol-2-yl)-(2-(trifluoromethyl)-1H-imidazol-4-yl)methanone] | 2.8 ± 0.8 µM | – | 0.59 ± 0.14 | –
8 | Cc1ccc(F)c2[nH]c3c(c12)CN(C(=O)c1cc(C(F)(F)F)[nH]n1)C(C)C3 (racemic) [Compound 33, (±)-(6-Fluoro-3,9-dimethyl-1,3,4,5-tetrahydro-2H-pyrido[4,3-b]indol-2-yl)-(5-(trifluoromethyl)-1H-pyrazol-3-yl)methanone] | 0.022 ± 0.011 µM | – | 0.95 ± 0.27 | –
9 | COc1ccc2[nH]c3c(c2c1)CN(C(=O)c1cc[nH]n1)CC3 [Compound 4, (8-Methoxy-1,3,4,5-tetrahydropyrido[4,3-b]indol-2-yl)-(1H-pyrazol-3-yl)methanone] | 10.6 ± 1.3 µM | 0.17 ± 0.03 | 0.17 ± 0.03 | –
10 | Cc1ccc2c3c([nH]c2c1)CCN(C(=O)c1cc(C(F)(F)F)[nH]n1)C3 [Compound 16, (7-Methyl-1,3,4,5-tetrahydro-2H-pyrido[4,3-b]indol-2-yl)-(5-(trifluoromethyl)-1H-pyrazol-3-yl)methanone] | 0.2 ± 0.06 µM | – | 0.22 ± 0.04 | –
11 | CS(=O)(=O)c1ccc2[nH]c3c(c2c1)CN(C(=O)c1cc(C(F)(F)F)[nH]n1)CC3 [Compound 24, (8-(Methylsulfonyl)-1,3,4,5-tetrahydro-2H-pyrido[4,3-b]indol-2-yl)-(5-(trifluoromethyl)-1H-pyrazol-3-yl)methanone] | 10.5 ± 2.2 µM | – | 0.28 ± 0.04 | –
12 | O=C(c1cc(C(F)(F)F)[nH]n1)N1CCc2[nH]c3c(F)cc(F)cc3c2C1 [Compound 27, (6,8-Difluoro-1,3,4,5-tetrahydro-2H-pyrido[4,3-b]indol-2-yl)-(5-(trifluoromethyl)-1H-pyrazol-3-yl)methanone] | 0.15 ± 0.07 µM | – | 0.66 ± 0.12 | –
13 | COc1ccc2c(c1)c1c(n2C)CCN(C(=O)c2cc(C(F)(F)F)[nH]n2)C1 [Compound 12, (8-Methoxy-5-methyl-1,3,4,5-tetrahydro-2H-pyrido[4,3-b]indol-2-yl)-(5-(trifluoromethyl)-1H-pyrazol-3-yl)methanone] | 2.1 ± 0.7 µM | 0.85 ± 0.06 | 0.85 ± 0.06 | –
14 | Cc1ccc(F)c2[nH]c3c(c12)C1CCC(C3)N1C(=O)c1cc(C(F)(F)F)[nH]n1 (racemic) [Compound 35, (±)-(4-Fluoro-1-methyl-5,6,7,8,9,10-hexahydro-7,10-epiminocyclohepta[b]indol-11-yl)-(5-(trifluoromethyl)-1H-pyrazol-3-yl)methanone] | 1.3 ± 0.3 µM | – | 0.82 ± 0.07 | –
15 | Cc1ccc(F)c2c3c([nH]c12)CCN(C(=O)c1cc(C(F)(F)F)[nH]n1)C3 [Compound 31, (9-Fluoro-6-methyl-1,3,4,5-tetrahydro-2H-pyrido[4,3-b]indol-2-yl)(5-(trifluoromethyl)-1H-pyrazol-3-yl)methanone] | 0.94 ± 0.25 µM | – | 0.65 ± 0.08 | more than 15 fold
